The values that follow come from patent US20110117165A1, “IMPLANTABLE BONE GRAFT MATERIALS” (AFFINERGY, INC., priority 2009, published 2011).

Ends that are not written are not given here. MP = mini-PEG unit; Mpa = O=C(O)CCS A value given as a limit tells only on which side of the number the result lay.

One test concerns the target T1, BMP-7 (Homo sapiens, UniProt P18075).
T1 sequence (P18075 293-431): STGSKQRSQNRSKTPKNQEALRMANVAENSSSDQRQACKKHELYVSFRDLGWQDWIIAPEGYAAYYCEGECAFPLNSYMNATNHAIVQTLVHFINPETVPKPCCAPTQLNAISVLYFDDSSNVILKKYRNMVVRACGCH
Description: Binding of immobilized BMP binding peptides to BMP-7 (ELISA). (In general: An ELISA detects its analyte on a solid surface through an enzyme-linked reagent.)

For the next test, the system named is C2C12 cells. Put plainly: Alkaline phosphatase secretion by C2C12 cells in response to BMP-2. The format is cell-based. As to conditions: peptide 0-3500 nM, 3 days. The method, then: In an experiment to test the biological activity of BMP-2 delivered by BMP binding peptide, alkaline phosphatase secreted by C2C12 cells in response to BMP-2 was measured in the presence and absence of BMP binding peptide in solution. C2C12 cells were incubated with BMP-2 (35 nM) and BMP binding peptide at a concentration ranging from 0-3500 nM. The C2C12 cells were incubated with the BMP-2 and BMP binding peptide for 3 days and the alkaline phosphatase assay was performed as described herein above.

The target of another test is T2, BMP-6 (Homo sapiens, UniProt P22004).
T2 sequence (P22004 375-513): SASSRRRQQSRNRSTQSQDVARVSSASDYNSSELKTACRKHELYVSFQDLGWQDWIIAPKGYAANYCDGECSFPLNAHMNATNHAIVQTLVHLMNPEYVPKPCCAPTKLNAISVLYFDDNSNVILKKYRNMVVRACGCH
Description: Binding of immobilized BMP binding peptides to BMP-6 (ELISA). The following applies: BMP at 100 nM and 10 nM. The method, then: (§1) BMP binding peptides SEQ ID NOs:1-4 & 8-10 were identified as described in US Patent Application Publication No. US20060051395A1. Briefly, the peptides were identified by phage display using immobilized BMP-2 as a substrate for the phage library selections. Synthetic peptides SEQ ID NOs: 1-2 were determined to bind to BMP-2 with a relative EC50 value of 0.8 nM and 0.9 nM, respectively (data not shown). Separately, the relative binding affinity of peptides SEQ ID NOs: 1-2 for BMP-2 is shown in FIG. 14A (SEQ ID NO: 1 is denoted as P9 and SEQ ID NO: 2 is denoted as P10). Briefly, the results shown in FIG. 14A were generated by immobilizing biotinylated BMP binding peptides SEQ ID NOs:1 & 2 on streptavidin coated plates. Serial dilutions of 200 nM, 20 nM and 2 nM of BMP-2 were incubated with the immobilized BMP binding peptides for 45 minutes, washed, and bound BMP quantified using ELISA.
(§2) BMP binding peptides SEQ ID NOs: 5-7 were identified as described in US Patent Application Publication No. US20090098175A1. Briefly, the peptides were identified by phage display using immobilized GDF-7 (GDF-7 is BMP-12) as a substrate for the phage library selections. […] The data shown in FIG. 14C were collected similarly to that described above for FIGS. 14A-14B except that the serial dilutions of BMP were 100 nM and 10 nM.

The target in test [1] is T3, BMP-2 (Homo sapiens, UniProt P12643).
T3 sequence (P12643 283-396): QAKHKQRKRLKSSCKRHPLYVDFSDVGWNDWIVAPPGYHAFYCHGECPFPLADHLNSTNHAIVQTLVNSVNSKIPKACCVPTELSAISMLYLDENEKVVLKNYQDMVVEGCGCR
Description: Binding of immobilized biotinylated BMP binding peptides to BMP-2 (ELISA). As to conditions: BMP-2 at 200, 20 and 2 nM, 45 minutes. The method, then:
as §1

The target of the next test is T4, BMP-5 (Homo sapiens, UniProt P22003).
T4 sequence (P22003 317-454): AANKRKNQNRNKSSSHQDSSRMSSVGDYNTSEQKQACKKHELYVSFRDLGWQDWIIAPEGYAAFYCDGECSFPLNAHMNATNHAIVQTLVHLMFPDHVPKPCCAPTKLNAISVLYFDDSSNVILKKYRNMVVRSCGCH
Description: Binding of immobilized BMP binding peptides to BMP-5 (ELISA). The following applies: BMP at 100 nM and 10 nM. The method, then: as §1, §2

In a further test the target is T5, GDF-7 (BMP-12) (Homo sapiens, UniProt Q7Z4P5).
T5 sequence (Q7Z4P5 322-450): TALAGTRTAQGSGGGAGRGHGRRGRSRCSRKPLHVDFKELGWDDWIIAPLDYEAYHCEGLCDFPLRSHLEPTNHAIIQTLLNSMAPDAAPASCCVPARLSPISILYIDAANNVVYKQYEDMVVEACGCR
Description: Binding to GDF-7 (phage display selection substrate). The method, then:
as §2

In test [2] the target is T6, BMP-2 (UniProt P12643 283-396).
T6 construct: also called bone morphogenic protein 2
Description: relative EC50 of synthetic peptide on BMP-2; format not described, data not shown.

In test [3] the target is T6, BMP-2. Description: collagenase digest of sponge after 24 h in plasma, ELISA; data not shown. The method, then: The BMP binding peptide-modified […] collagen sponges generated in Example 2 were evaluated for ability to bind and retain BMP-2. […] The amount of BMP-2 released into the plasma at each time-point was measured by ELISA (QUANTIKINE, R&D SYSTEMS), and the amount retained on the sponge after 24 h was estimated by Western blot analysis. […] After 24 h, the sponges were digested by collagenase, and the amount of BMP-2 retained on the sponges was quantified by ELISA.

The target in test [4] is T6, BMP-2. Description: relative EC50 of peptide on BMP-2; format not described, data not shown.

In the case of “GGALGFPLKGEVVEGWA-NH2 (C-terminus assumed) [SEQ ID NO: 2]”, the “relative binding affinity for BMP-7 (FIG. 14B)” value on BMP-7 is given as “high relative affinity”. Moreover, the “effect on BMP-2 biological activity (alkaline phosphatase secretion)” value in the test on C2C12 cells (BMP-2 35 nM) is reported as “does not interfere with the biological activity of BMP-2”. Moreover, the “BMP-2 activity of the peptide on its own” value with C2C12 cells is given as “does not have BMP-2 activity on its own”. The “binding to BMP-6 (FIG. 14C)” value on BMP-6 is listed as “bind”. The “relative binding affinity for BMP-2 (FIG. 14A)” value at BMP-2 [1] is reported as “high relative affinity”. At BMP-5, the “binding to BMP-5 (FIG. 14C)” value is given as “bind”.
Consider GGGAWEAFSSLSGSRV [SEQ ID NO: 1], for which the “relative binding affinity for BMP-7 (FIG. 14B)” value at BMP-7 is recorded as “high relative affinity”. The “binding to BMP-6 (FIG. 14C)” value at BMP-6 is “bind”. On BMP-2 [1], the “relative binding affinity for BMP-2 (FIG. 14A)” value is given as “high relative affinity”. Moreover, the “binding to BMP-5 (FIG. 14C)” value on BMP-5 is recorded as “bind”.
Take SSGGVGGWALFETLRGKEVSR [SEQ ID NO: 6]: on GDF-7 (BMP-12), the “binding to GDF-7” value was “binding GDF-7”. Besides, the “binding to BMP-6 (FIG. 14C)” value at BMP-6 was “bind”. Further, the “binding to BMP-5 (FIG. 14C)” value at BMP-5 is “bind”.
For SSGPREIWDSLVGVVNPGWSR [SEQ ID NO: 5], on GDF-7 (BMP-12), the “binding to GDF-7” value was “binding GDF-7”. The “binding to BMP-6 (FIG. 14C)” value on BMP-6 is given as “bind”. In addition, the “binding to BMP-5 (FIG. 14C)” value at BMP-5 is given as “bind”.
Regarding SSVAEWALRSWEGMRVGEASR [SEQ ID NO: 7], the “binding to GDF-7” value at GDF-7 (BMP-12) is “binding GDF-7”. Moreover, at BMP-6, the “binding to BMP-6 (FIG. 14C)” value is recorded as “bind”. The “binding to BMP-5 (FIG. 14C)” value at BMP-5 is reported as “bind”.

B1: BMP binding peptide SEQ ID NO: 2 (peptide)
peptide: GGALGFPLKGEVVEGWA
modifications: also: biotinylated, position not given here
notes: Synthetic peptide found by phage display on immobilized BMP-2; also called P10
As usually defined, the EC50 is the concentration giving half of the maximal effect. For the molecule B1, the concentration for a half-maximal effect (EC50) with BMP-2 [2] is 0.9 nM.

B2: HS-Propionyl-MP-MP-(SEQ ID NO: 2)-amide, covalently attached to collagen (peptide)
peptide: {Mpa-MP-MP}-GGALGFPLKGEVVEGWA-NH2
modifications: also: attached to collagen through a disulfide
notes: also called Peptide1
With B2, the “fold BMP-2 retained against unmodified sponge after 24 h” value with BMP-2 [3] was > 40 fold.

B3: BMP binding peptide SEQ ID NO: 5 (peptide)
peptide: SSGPREIWDSLVGVVNPGWSR
modifications: also: biotinylated, position not given here
notes: Found by phage display on immobilized GDF-7; also called P11
B3 had a 50% effective concentration (EC50) with BMP-2 [4] of 2 nM.

B4: BMP binding peptide SEQ ID NO: 6 (peptide)
peptide: SSGGVGGWALFETLRGKEVSR
modifications: also: biotinylated for plate assay, position not given here
notes: Found by phage display on immobilized GDF-7; also called P12
With B4, the half-maximal effective concentration (EC50) with BMP-2 [4] was 1.8 nM.

B5: BMP binding peptide SEQ ID NO: 1 (peptide)
peptide: GGGAWEAFSSLSGSRV
modifications: also: biotinylated, position not given here
notes: Synthetic peptide found by phage display on immobilized BMP-2; also called P9
In the test with BMP-2 [2], B5 had an EC50 of 0.8 nM.

B6: BMP binding peptide SEQ ID NO: 7 (peptide)
peptide: SSVAEWALRSWEGMRVGEASR
modifications: also: biotinylated for plate assay, position not given here
notes: Found by phage display on immobilized GDF-7; also called P13
In the test with BMP-2 [4], B6 returned an EC50 of 1.1 nM.

B7: BMP binding peptide SEQ ID NO: 1 containing a free thiol group, covalently attached to HELISTAT collagen (peptide)
peptide: GGGAWEAFSSLSGSRV
modifications: also: free thiol group added, position and spacer not given here, attached to collagen through a disulfide
notes: also called Peptide2; Peptide 2
Regarding B7, the “fold BMP-2 retained against unmodified sponge after 24 h” value with BMP-2 [3] is > 40 fold.
